These results are taken from ChEMBL document CHEMBL1142028, “(E)-Phenyl- and -heteroaryl-substituted O-benzoyl-(or acyl)oximes as lipoprotein-associated phospholipase A2 inhibitors” (Bioorg Med Chem Lett, 2005).

The structures appear in SMILES notation.

For the assay, the target named is T1, Platelet-activating factor acetylhydrolase (Homo sapiens, UniProt Q13093).
T1 sequence (Q13093 whole entry): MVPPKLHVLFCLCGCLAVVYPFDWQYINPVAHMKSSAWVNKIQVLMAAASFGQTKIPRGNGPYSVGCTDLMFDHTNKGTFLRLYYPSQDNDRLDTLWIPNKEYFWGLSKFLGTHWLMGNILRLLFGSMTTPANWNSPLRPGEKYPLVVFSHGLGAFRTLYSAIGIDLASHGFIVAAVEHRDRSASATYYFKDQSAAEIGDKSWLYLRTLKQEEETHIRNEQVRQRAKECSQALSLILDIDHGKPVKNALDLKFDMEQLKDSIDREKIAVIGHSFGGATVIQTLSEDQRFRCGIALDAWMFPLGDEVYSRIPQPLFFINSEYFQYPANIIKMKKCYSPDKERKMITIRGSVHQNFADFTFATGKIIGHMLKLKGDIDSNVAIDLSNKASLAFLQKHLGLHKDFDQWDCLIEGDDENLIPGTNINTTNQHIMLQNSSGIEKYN
The experiment in a line: In vitro inhibitory activity against human lipoprotein-associated phospholipase A2; NA - not active.

Turning to `O=C(ON=C(c1ccccc1)c1ccccc1)c1ccccc1` [(DIPHENYLMETHYLIDENE)AMINO BENZOATE], the IC50 entry is “Not Active”.
